The values that follow come from patent US8987314B2, “Amide, urea or sulfone amide linked benzothiazole inhibitors of endothelial lipase” (Bristol-Myers Squibb Company, priority 2012, dated 2015).

The pIC50 is the IC50 on a negative log10 scale, so that one unit is a factor of ten.

The target of one assay is Endothelial lipase (EL) (Homo sapiens (Human), UniProt Q9Y5X9). The assay can be described thus: EL assay: endothelial lipase activity with fluorescent substrate A10070 in DMPG vesicles. It is filed as biochemical. The procedure:
(§1) Endothelial lipase (EL) and hepatic lipase (HL) activities were measured using a fluorescent substrate, A10070, (Invitrogen, CA) doped into an artificial vesicle containing DMPG (Avanti Polar Lipids) as the excipient. Vesicles were prepared by combining 571 μL of 29 mM DMPG in a 1:1 mixture of MeOH and CHCl3 with 2000 μL of 1 mM A10070 in a 1:1 mixture of MeOH and CHCl3. The mixture was dried under nitrogen in multiple vials then resuspended in 20 mL total volume of 50 mM HEPES pH 8.0 buffer containing 50 mM NaCl and 0.2 mM EDTA. The sample was allowed to sit at room temperature for 15 min and then was sonicated 3×4 mins on ice with a Branson Sonicator using duty cycle 1. This preparation provides vesicles with a mole fraction of 0.11 for the FRET substrate.
(§2) The enzymatic assay was measured using 384-well white Optiplates. Each well contained 20 μL of assay buffer (50 mM HEPES pH 8.0, 50 mM NaCl and 1 mM CaCl2) and 0.25 μL of a DMSO solution containing a compound of interest. EL or HL (10 μL) was added and allowed to incubate with the compound for 30 min at 37° C. The source of EL was conditioned media obtained from HT-1080 cells that were transformed using RAGE technology (Athersys) to overexpress endogenous EL, and HL was partially purified from conditioned media obtained from COS cells overexpressing HL. The reaction was started by the addition of 10 μL of a 1:10 dilution of vesicles. The final total reaction volume was […]. The reaction rates were measured on a Gemini plate reader with an excitation wavelength of 490 nm and an emission wavelength of 530 nm. Readings were taken over a period of 60 minutes, and the slope between 300 and 900 secs of the readout was used to calculate the rate of the reaction.

The target in the next assay is hepatic lipase (HL) (Homo sapiens (Human), UniProt P11150). Put plainly: HL assay: hepatic lipase activity with fluorescent substrate A10070 in DMPG vesicles. The class given is biochemical. On the procedure:
as §1, §2

[1] abbreviates: EL from conditioned media of HT-1080 cells, 30 min incubation with compound at 37° C., A10070/DMPG vesicles.

pIC50: −log10 of the molar value. Like-named read-outs stand apart in the source and are kept apart here.

Sequence of Endothelial lipase (EL) (Q9Y5X9 21-500): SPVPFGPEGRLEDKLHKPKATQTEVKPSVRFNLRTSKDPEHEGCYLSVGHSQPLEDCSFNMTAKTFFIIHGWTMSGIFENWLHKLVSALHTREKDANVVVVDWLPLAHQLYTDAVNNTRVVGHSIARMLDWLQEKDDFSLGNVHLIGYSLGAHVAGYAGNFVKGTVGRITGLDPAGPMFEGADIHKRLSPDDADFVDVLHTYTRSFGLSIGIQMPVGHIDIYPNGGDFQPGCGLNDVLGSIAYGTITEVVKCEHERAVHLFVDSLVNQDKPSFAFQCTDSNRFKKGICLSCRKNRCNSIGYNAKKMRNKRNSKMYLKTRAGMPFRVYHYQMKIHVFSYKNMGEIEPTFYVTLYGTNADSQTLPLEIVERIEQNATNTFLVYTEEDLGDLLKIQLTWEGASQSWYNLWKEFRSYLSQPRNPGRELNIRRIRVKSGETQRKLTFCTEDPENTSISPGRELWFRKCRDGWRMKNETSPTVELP
Sequence of hepatic lipase (HL) (P11150 23-499, species assumed): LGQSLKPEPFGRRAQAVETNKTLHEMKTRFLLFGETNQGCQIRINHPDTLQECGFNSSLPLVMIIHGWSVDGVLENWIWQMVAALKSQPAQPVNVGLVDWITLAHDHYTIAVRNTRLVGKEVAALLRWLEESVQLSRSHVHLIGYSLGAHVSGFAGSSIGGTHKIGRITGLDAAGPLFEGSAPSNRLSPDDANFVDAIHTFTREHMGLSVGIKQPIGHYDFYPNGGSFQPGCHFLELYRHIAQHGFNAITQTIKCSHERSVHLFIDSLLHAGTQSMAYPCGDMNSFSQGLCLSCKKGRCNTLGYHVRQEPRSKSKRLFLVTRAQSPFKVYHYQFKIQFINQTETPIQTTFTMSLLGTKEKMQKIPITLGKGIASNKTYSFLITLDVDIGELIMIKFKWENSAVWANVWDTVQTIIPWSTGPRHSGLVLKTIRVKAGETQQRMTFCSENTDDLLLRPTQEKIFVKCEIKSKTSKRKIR

On to “2-[6-(2-fluorophenyl)-1,3- benzothiazol-2-yl]-N-(2- sulfamoylethyl)-2-(3,3,3- trifluoropropanesulfonyl)a- cetamide [Example B307]”, for which the negative logarithm of the IC50 (pIC50) was 8.52 against Endothelial lipase (EL) and 8.82 on hepatic lipase (HL).
For “2-[6-(3-fluoro-2-hydroxy- pyridin-4-yl)-1,3- benzothiazol-2-yl]-N-(2- sulfamoylethyl)-2-{[4- (trifluoromethoxy)phen- yl]methanesulfonyl}a- cetamide [Example B376]” the same measures were 8.15 and 5.33.
For the molecule `CS(=O)(=O)CCNC(=O)C(c1nc2ccc(-c3ccnc(F)c3)cc2s1)S(C)(=O)=O` (stereo not shown) [Example B23, 2-(6-(2-Fluoro-4-pyridinyl)-1,3-benzothiazol-2-yl)-2-(methylsulfonyl)-N-(2-(methylsulfonyl)ethyl)acetamide], on Endothelial lipase (EL) (setting [1]), the pIC50 is 6.68.
Consider `CS(=O)(=O)C(C(=O)NCCS(=O)(=O)Nc1ccccc1)c1nc2ccc(-c3ccnc(F)c3)cc2s1` (stereo not shown) [Example B24, 2-(6-(2-fluoro-4-pyridinyl)-1,3-benzothiazol-2-yl)-2-(methylsulfonyl)-N-(2-(phenylsulfamoyl)ethyl)acetamide], for which the pIC50 at Endothelial lipase (EL) (setting [1]) is 7.46.
On the same count and under the same terms, for `NS(=O)(=O)CCNC(=O)C(c1nc2c(F)cc(-c3ccccc3)cc2s1)S(=O)(=O)CCC(F)(F)F` (stereo not shown) [Example B26, 2-(4-Fluoro-6-phenylbenzo[d]thiazol-2-yl)-N-(2-sulfamoylethyl)-2-((3,3,3-trifluoropropyl)sulfonyl)acetamide] the value was above 8.00; for `NC(=O)c1ccc(-c2cc3sc(C(C(=O)N[C@@H]4CCNC4=O)S(=O)(=O)Cc4ccccc4)nc3cc2F)cc1` (stereo partly drawn) [Example B27, 4-(2-(1-(benzylsulfonyl)-2-oxo-2-(((3R)-2-oxo-3-pyrrolidinyl)amino)ethyl)-5-fluoro-1,3-benzothiazol-6-yl)benzamide], 7.03; for `Cc1nnc(CNC(=O)C(c2nc3cc(C)c(-c4ccccc4)cc3s2)S(=O)(=O)Cc2ccccc2)o1` (stereo not shown) [Example B28, 2-(benzylsulfonyl)-N-((5-methyl-1,3,4-oxadiazol-2-yl)methyl)-2-(5-methyl-6-phenyl-1,3-benzothiazol-2-yl)acetamide], 7.92.
Consider `CS(=O)(=O)C(C(=O)NCCS(=O)(=O)NCC(F)(F)F)c1nc2ccc(-c3ccnc(F)c3)cc2s1` (stereo not shown) [Example B30, 2-(6-(2-Fluoro-4-pyridinyl)-1,3-benzothiazol-2-yl)-2-(methylsulfonyl)-N-(2-((2,2,2-trifluoroethyl)sulfamoyl)ethyl)acetamide], for which the negative logarithm of the IC50 (pIC50) on Endothelial lipase (EL) (setting [1]) is 6.56.
`CC(C)(C)NC(=O)c1ccc(-c2ccc3nc(C(C(=O)NCCS(N)(=O)=O)S(C)(=O)=O)sc3c2)cc1` (stereo not shown) [Example B31, N-tert-Butyl-4-(2-(1-(methylsulfonyl)-2-oxo-2-((2-sulfamoylethyl)amino)ethyl)-1,3-benzothiazol-6-yl)benzamide]: the negative-log IC50 (pIC50) was above 8.00 on Endothelial lipase (EL) (setting [1]) and 6.59 at hepatic lipase (HL) (HL partially purified from conditioned media of COS cells, 30 min incubation with compound at 37° C., A10070/DMPG vesicles).
In the case of `CS(=O)(=O)C(C(=O)NCCS(N)(=O)=O)c1nc2ccc(-c3ccc(C(=O)N4CCOCC4)c(Cl)c3)cc2s1` (stereo not shown) [Example B32, 2-(6-(3-chloro-4-(4-morpholinylcarbonyl)phenyl)-1,3-benzothiazol-2-yl)-2-(methylsulfonyl)-N-(2-sulfamoylethyl)acetamide], the negative logarithm of the IC50 (pIC50) against Endothelial lipase (EL) is above 8.00; against hepatic lipase (HL) it was 6.03.
For `Cc1cc(-c2ccc3nc(C(C(=O)NCCS(N)(=O)=O)S(C)(=O)=O)sc3c2)cnc1F` (stereo not shown) [Example B33, 2-(6-(6-fluoro-5-methyl-3-pyridinyl)-1,3-benzothiazol-2-yl)-2-(methylsulfonyl)-N-(2-sulfamoylethyl)acetamide] the same measures were 7.85 and 7.66.
With `CS(=O)(=O)C(C(=O)NCCS(N)(=O)=O)c1nc2ccc(-c3cnn(CCN4CCOCC4)c3)cc2s1` (stereo not shown) [Example B34, 2-(methylsulfonyl)-2-(6-(1-(2-(4-morpholinyl)ethyl)-1H-pyrazol-4-yl)-1,3-benzothiazol-2-yl)-N-(2-sulfamoylethyl)acetamide], the pIC50 against Endothelial lipase (EL) is above 8.00; against hepatic lipase (HL), 6.50.
For `COCCNC(=O)c1ccc(-c2ccc3nc(C(C(=O)NCCS(N)(=O)=O)S(C)(=O)=O)sc3c2)cc1` (stereo not shown) [Example B35, N-(2-methoxyethyl)-4-(2-{1-(methylsulfonyl)-2-oxo-2-[(2-sulfamoylethyl)a-mino]ethyl}-1,3-benzothiazol-6-yl)ben-zamide] the same measures were above 8.00 and 7.37.
On the same counts, the results for `CS(=O)(=O)C(C(=O)NCCS(N)(=O)=O)c1nc2ccc(-c3ccc(F)cc3)cc2s1` (stereo not shown) [Example B36, 2-(6-(4-fluorophenyl)-1,3-benzothiazol-2-yl)-2-(methylsulfonyl)-N-(2-sulfamoylethyl)acetamide] are above 8.00 and above 8.00.
For `CS(=O)(=O)C(C(=O)NCCS(N)(=O)=O)c1nc2ccc(-c3cccc(F)c3)cc2s1` (stereo not shown) [Example B37, 2-(6-(3-fluorophenyl)-1,3-benzothiazol-2-yl)-2-(methylsulfonyl)-N-(2-sulfamoylethyl)acetamide] the same measures were above 8.00 and above 8.00.
`CS(=O)(=O)C(C(=O)NCCS(N)(=O)=O)c1nc2ccc(-c3ccc4c(c3)OCO4)cc2s1` (stereo not shown) [Example B38, 2-(6-(1,3-benzodioxol-5-yl)-1,3-benzothiazol-2-yl)-2-(methylsulfonyl)-N-(2-sulfamoylethyl)acetamide]: the negative-log IC50 (pIC50) against Endothelial lipase (EL) and at hepatic lipase (HL) was above 8.00 each time.
In the case of `CS(=O)(=O)C(C(=O)NCCS(N)(=O)=O)c1nc2ccc(-c3ccc(OC(F)(F)F)cc3)cc2s1` (stereo not shown) [Example B39, 2-(methylsulfonyl)-N-(2-sulfamoylethyl)-2-(6-(4-(trifluoromethoxy)phenyl)-1,3-benzothiazol-2-yl)acetamide], the pIC50 against Endothelial lipase (EL) and against hepatic lipase (HL) was above 8.00 each time.
On to `CS(=O)(=O)C(C(=O)NCCS(N)(=O)=O)c1nc2ccc(-c3ccc(C(=O)NCCO)cc3)cc2s1` (stereo not shown) [Example B40, N-(2-hydroxyethyl)-4-(2-(1-(methylsulfonyl)-2-oxo-2-((2-sulfamoylethyl)a-mino)ethyl)-1,3-benzothiazol-6-yl)ben-zamide], for which the pIC50 against Endothelial lipase (EL) was above 8.00; against hepatic lipase (HL) it was 7.72.
For `CS(=O)(=O)C(C(=O)NCCS(N)(=O)=O)c1nc2ccc(-c3ccc(C(=O)NCC(F)(F)F)cc3)cc2s1` (stereo not shown) [Example B41, 4-(2-(1-(methylsulfonyl)-2-oxo-2-((2-sulfamoylethyl)a-mino)ethyl)-1,3-benzothiazol-6-yl)-N-(2,2,2-trifluoroethyl)ben-zamide], the results for the negative logarithm of the IC50 (pIC50) against Endothelial lipase (EL) and against hepatic lipase (HL) were above 8.00 and 7.77, respectively.
For the molecule `C=CCC(C(=O)NCCS(N)(=O)=O)c1nc2ccc(-c3ccccc3)cc2s1` (stereo not shown) [Reference 1, 2-(6-Phenyl-1,3-benzothiazol-2-yl)-N-(2-sulfamoylethyl)-4-pentenamide, reference compound], the pIC50 against Endothelial lipase (EL) is 5.03.
Turning to `CC(C)c1cc(CNC(=O)C(C)(C)c2nc3ccc(-c4ccccc4)cc3s2)on1` [Reference 2, N-((3-isopropylisoxazol-5-yl)methyl)-2-methyl-2-(6-phenylbenzo[d]thiazol-2-yl)propanamide, reference compound], the pIC50 at Endothelial lipase (EL) (setting [1]) was below 4.21.
